For data set [1] the following is noted: Richon et al., 1996; cited from earlier work.
Data set [2] relates to p6SBE-luc, p6MBE-luc, pCMVβ, pUB6/V5-lacZ reporters in PANC-1 or MDA-MB-468 cells. The data set can be described thus: Transient transfection reporter assay (luciferase, β-gal). The format is cell-based. The conditions noted are these: 18 hours; for facilitation of reporter expression after transient transfection (in words): SV40, CMV and ubiquitin c promoters, PANC-1 or MDA-MB-468. The procedure: FIGS. 7A-7C. Scriptaid and TSA transcriptional facilitation after transient transfection. PANC-1 or MDA-MB-468 cells were transiently transfected for 4 hours with constructs containing various promoters. Transfected cells were untreated or treated with scriptaid or TSA for 18 hours. Data represent averages of two to five experiments and SEM. FIG. 7A, SV40 promoter and luciferase reporter gene. FIG. 7B, CMV promoter and β-gal reporter gene. FIG. 7C, human ubiquitin c promoter and β-gal reporter gene.
Transfection Assay. Each transient transfection experiment was done in duplicate in six-well plates. LipofectAMINE (Life Technologies, Inc.) was used as directed by the manufacturer. The DNA-LipofectAMINE mixture was removed from cells after 4-5 hours of transfection, and culture media with or without compounds or TGFβ was then added to the cells. Sixteen to eighteen hours from the start of the transfection, cell lysates were prepared with Reporter Lysis Buffer (Promega) for luciferase and β-gal assays. Luciferase was measured using The Luciferase Assay System (Promega) and β-gal assay was performed as previously described (Dai et al., 1998). Studies of the SV40 promoter included all experiments done with p6SBE-luc, p6MBE-luc, and pGL3-control (Promega) plasmids. Studies of the CMV promoter were done using pCMVβ. (Clonetech, Palo Alto, Calif.), and those of human ubiquitin c promoter were done using pUB6/V5-lacZ (Invitrogen).
A general note: A reporter such as luciferase makes a cellular process visible.

Data set [3] has as its system PANC-1 cells having stably integrated p6SBE-luc. The data set can be described thus: Dose response of transcriptional facilitation in stably transfected cell line (FIG. 3). Type of data set: cell-based. The conditions noted are these: for optimal concentration for transcriptional facilitation: PANC-1 stably integrated p6SBE-luc, luciferase; for transcriptional facilitation (in words): at concentrations corresponding to scriptaid. The procedure:
FIG. 3. Dose responses of TSA and scriptaid transcriptional facilitation in a stably transfected cell line. Luciferase activity was determined using PANC-1 cells having stably integrated p6SBE-luc at the indicated concentration of compounds. Data represent averages of two to three experiments and SEM.
(§1) Cell Lines. PANC-1 and MDA-MB-468 cell lines were purchased from ATCC (Manassas, Va.). Stable transfectants were generated by co-transfection of pcDNA3.1 (Invitrogen, Carlsbad, Calif.) and p6SBE-luc into PANC-1 cells with LipofectAMINE (Life Technologies, Inc.). Transfected cells were diluted and selected in multiple 96-well plates in the presence of 0.5 mg/ml of G418 (Life Technologies, Inc.). Single clones were expanded and tested for basal luciferase expression and TGFβ inducibility. One clone was chosen on basis of high (6 to 8-fold) induction of luciferase by 0.5 ng/ml TGFβ (R&D Systems, Minneapolis, Minn.).
(§2) Compound Screening. Each compound of the library (DIVERSet, ChemBridge, San Diego, Calif.) was dissolved and diluted in DMSO at 1 mg/ml. Cells were plated in 96-well cluster plates (Corning, Cambridge, Mass.) and incubated with each compound, after further dilution in culture media to the final concentration of 2 μg/ml, for 16-18 hours. Luciferase activity was measured upon addition of Steady-Glo substrate (Promega). Up to sixteen 96-well plates could be assembled in a Wallac Trilux photodetector (Wallac, Gaithersburg, Md.) for measurement. All readouts from each experiment were compared to the control wells, and a number reflecting the relative increase in luciferase activity was calculated for each chemical using Excel (Microsoft, Redmond, Wash.) spreadsheets.
The entire library, consisting of 16,320 compounds, was screened. Eleven compounds were associated with a two to five-fold induction of luciferase activity, and one with a twelve-fold activation (FIG. 1). Further studies on the latter compound (ID#217444, 6-(1,3-Dioxo-1H,3H-benzo[de]isoquinolin-2-yl)-hexanoic acid hydroxyamide, we termed scriptaid) are reported here (FIG. 2). […] The results were validated by repeated determinations in the screening assay and subsequently by a dose-response curve performed on PANC-1 cells containing stably integrated p6SBE-luc (FIG. 3).

Data set [4] deals with p6SBE-luc reporter construct in PANC-1 cells. The data set can be described thus: Compound screening, luciferase activity in PANC-1 cells with stably integrated p6SBE-luc. Type of data set: cell-based. The conditions noted are these: 2 μg/ml compound, 16-18 hours, initial library screen. The procedure:
as §1
as §2, with “spreadsheets. […]” for “spreadsheets.”

Data set [5] has as its system histone deacetylase (HDAC) in PANC-1 cells. The experiment in a line: Immunoblotting assay of histone acetylation. The format is cell-based. Background: A western blot detects proteins with antibodies after separation by electrophoresis.
Description: PANC-1 cells were untreated or treated with scriptaid (2 μg/ml) or TSA (0.1 or 0.32 μg/ml). Acetylated histones were detected by anti-human acetyl-lysine antibody immunoblot. Immunoblotting Assay of Histone Acetylation. PANC-1 cells were treated with 2 μg/ml of scriptaid (ChemBridge), 0.1 μg/ml, or 0.32 μg/ml of trichostatin A (Sigma, St. Louis, Mo.) for 18 hours in culture media. Treated and untreated cells were harvested with trypsin-EDTA (Life Technologies, Inc.), washed with phosphate-buffered saline (Life Technologies, Inc.), and resuspended in a protein sample buffer. Protein concentration was determined by BCA protein assay reagents (Pierce, Rockford, Ill.). Fifty micrograms of proteins from each sample was loaded on a 12% denaturing polyacrylamide gel. Proteins were subsequently transferred to a nylon membrane (Imobilon P, Millipore, Burlington, Mass.) using Milliblot-Graphite Electroblotter I (Millipore). The nylon membrane was incubated with rabbit anti-human acetyl-lysine antibody (#06-933, Upstate Biotechnology, Waltham, Mass.) at 1:1000 dilution, followed by goat anti-rabbit antibody coupled to horseradish peroxidase (Pierce) at 1:2000 dilution, developed with SuperSignal substrates (Pierce), and detected by film (BioMax, Kodak, Rochester, N.Y.).
Data set [6] concerns PANC-1 and MDA-MB-468 cells. The data set can be described thus: Survival curve, trypan-blue exclusion. The conditions noted are these: 18-hour incubation; for cytotoxicity (in words): at optimal concentration for transcriptional facilitation. The format is cell-based. The procedure: FIGS. 5A to 5B. Effects of compounds on cell survival. […] Data represent averages of two to four experiments and SEM. FIG. 5A, scriptaid. FIG. 5B, TSA.
Survival Curve. Equal numbers of cells were plated in six-well plates in the absence or presence of scriptaid or TSA at different concentrations. After 18 hours of incubation, cell numbers were determined by trypan-blue exclusion. Percent survival of the treated cells was calculated in comparison to the untreated sample, which was considered to represent 100%.

Data set [7] concerns PANC-1 cells containing the stably integrated p6SBE-luc. The data set can be described thus: TGFβ/Smad4 signal transduction assay with stably integrated p6SBE-luc (FIGS. 6B, 6C). Type of data set: cell-based. The conditions noted are these: absence or presence of TGFβ 1 ng/ml. The procedure: FIGS. 6A-6C. Proportional effects of scriptaid and TSA on the TGFβ/Smad4 signal transduction assay. FIG. 6A, p6SBE-luc or p6MBE-luc was cotransfected with pCMV-β into PANC-1 cells. Transfected cells were untreated or treated with TGFβor/and scriptaid for 18 hours. […] Relative luciferase induction was determined after normalization to the TGFβ-non-inducible pCMV-β control, itself subject to scriptaid facilitation (see FIG. 7). Data represent averages of two experiments and SEM. FIG. 6B, total luciferase induction in PANC-1 cells containing the stably integrated p6SBE-luc after treatment with scriptaid or TSA in the absence or presence of TGFβ (1 ng/ml). FIG. 6C, relative luciferase induction in PANC-1 cells containing the stably integrated p6SBE-luc after treatment with scriptaid or TSA in the absence or presence of TGFβ (1 ng/ml ) determined after normalization to the values observed with the HDAC inhibitor alone.
Cell Lines. PANC-1 and MDA-MB-468 cell lines were purchased from ATCC (Manassas, Va.). Stable transfectants were generated by co-transfection of pcDNA3.1 (Invitrogen, Carlsbad, Calif.) and p6SBE-luc into PANC-1 cells with LipofectAMINE (Life Technologies, Inc.). Transfected cells were diluted and selected in multiple 96-well plates in the presence of 0.5 mg/ml of G418 (Life Technologies, Inc.). […]

Molecules are shown by their SMILES. “And” between values parts separate entries of the source, which are not always exact repeats. Equal entries are not always repeated.

Regarding `O=C(/C=C/c1cccc(C(=O)NO)c1)NO` [CBHA], the optimal concentration reported in data set [1] is 4 µM.
Consider `O=C(CCCCCCC(=O)Nc1ccccc1)NO` [SAHA], for which, in data set [1], the optimal concentration reported is 2 µM.
On to `O=C(CCCCCN1C(=O)c2cccc3cccc(c23)C1=O)NO` [scriptaid, 6-(1,3-Dioxo-1H,3H-benzo[de]isoquinolin-2-yl)-hexanoic acid hydroxyamide], for which, in data set [2], the “facilitation of reporter expression after transient transfection (in words)” value was “capable of inducing high expression”. Moreover, the “increase of transcription of all three reporters (p6SBE-luc, p6MBE-luc, pCMVβ)” value in data set [2] (transient cotransfection in PANC-1 cells) is on record as “twelve-fold”. In addition, the “optimal concentration for transcriptional facilitation” value in data set [3] was 6 to 8 µM; in data set [3] (listed as Scriptaid) it was 2-2.5 μg/ml and 6-8 μM. The “induction of luciferase activity relative to control wells” value in data set [4] is “twelve-fold”. Further, in data set [5] (cultured cells, scriptaid 2 μg/ml, 18 hours, anti-acetyl-lysine immunoblot), the “increase in histone acetylation” value is on record as “greater than 100 fold”. In data set [6] (at its optimal concentration for transcriptional facilitation, cell line not named), this compound returned a survival of 80%. For the same compound, the “cytotoxicity (in words)” value in data set [6] was “not lethal to one cell line”. The “effect on TGFβ-stimulated induction of integrated p6SBE-luc (in words)” value in data set [7] is “proportionally enhance the induction of an integrated p6SBE-luc construct without interfering with TGFβ-stimulated transcriptional responses”.
For the compound `CC(=O)NCCCCCCNC(C)=O` [HMBA], the optimal concentration reported in data set [1] was 5000 µM.
Turning to `CC(/C=C/C(=O)NO)=C\[C@@H](C)C(=O)c1ccc(N(C)C)cc1` [TSA, trichostatin A], the “facilitation of reporter expression after transient transfection (in words)” value in data set [2] is reported as “less predictable at its optimal concentration”. For the same compound, the “inhibition of endogenous histone deacetylation (in words)” value in data set [5] (TSA 0.1 μg/ml, compared with scriptaid 2 μg/ml and TSA 0.32 μg/ml) is listed as “less efficient”. Besides, in data set [6], the “cytotoxicity (in words)” value is reported as “cytotoxic for two cell lines”. For the same compound, the survival in data set [6] (minimal toxic concentration 0.1 μg/ml) is reported as 85-90%. Further, the “effect on TGFβ-stimulated induction of integrated p6SBE-luc (in words)” value in data set [7] is on record as “proportionally enhance the induction of an integrated p6SBE-luc construct without interfering with TGFβ-stimulated transcriptional responses”.
As for `O=C(CCCN1C(=O)c2cccc3cccc(c23)C1=O)NO` [nullscript, 4-(1,3-Dioxo-1H,3H-benzo[de]isoquinolin-2-yl)-N-hydroxy-butyramide], the figures for the “transcriptional facilitation (in words)” value in data set [3] and in data set [3] (listed as Nullscipt) were “inactive” and “does not facilitate transcription”, respectively. The “induction of luciferase activity relative to control wells” value in data set [4] is on record as “did not induce”.

These data come from patent US6544957B2, “Methods and reagents for facilitating transcription” (The Johns Hopkins University, priority 2000, dated 2003).
